Experimental data as given in patent US20250312352A1, “GLP-1R MODULATING COMPOUNDS” (Gilead Sciences, Inc., priority 2021, published 2025).

Molecular target: T1, GLP-1R (Homo sapiens, UniProt P43220)
T1 construct: host or cells: CHO cells
Assay: GLP-1R activation cAMP assay (Assay 1 or Assay 2)
Format: cell-based
Conditions: cAMP increase in CHO cells stably expressing GLP-1R; compounds run on one of the two cAMP assays
Summary of the method: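 EC50 values come from a sigmoidal fit of HTRF-detected cAMP rise versus log agonist concentration. GLP-1R-expressing CHO cells, equilibrated 1 h at 37 °C in HBSS with HEPES and BSA, received a 10-point compound dose series for 30 min before detection.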

T1 sequence (P43220 24-463): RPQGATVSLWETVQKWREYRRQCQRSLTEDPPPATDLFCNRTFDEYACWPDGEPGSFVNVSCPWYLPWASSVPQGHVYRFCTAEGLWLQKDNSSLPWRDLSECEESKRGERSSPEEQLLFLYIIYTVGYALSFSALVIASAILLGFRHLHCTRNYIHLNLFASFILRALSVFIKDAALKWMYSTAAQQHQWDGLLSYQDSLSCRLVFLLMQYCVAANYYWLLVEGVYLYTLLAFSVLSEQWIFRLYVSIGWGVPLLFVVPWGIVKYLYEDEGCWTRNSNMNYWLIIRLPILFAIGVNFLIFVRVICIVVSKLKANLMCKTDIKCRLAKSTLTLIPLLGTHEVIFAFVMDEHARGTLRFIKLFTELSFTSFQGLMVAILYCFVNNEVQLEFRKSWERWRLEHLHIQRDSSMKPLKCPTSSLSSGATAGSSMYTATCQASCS

EC50	Structure (SMILES)
0.101 nM	O=C(O)c1cc(Cl)c2nc(Cc3cc(F)c(-c4cccc(OCc5ncc(C(F)(F)F)s5)n4)cc3F)n(C[C@@H]3CCO3)c2c1 [Example 445, (S)-4-chloro-2-(2,5-difluoro-4-(6-((5-(trifluoromethyl)thiazol-2-yl)methoxy)pyridin-2-yl)benzyl)-1-(oxetan-2-ylmethyl)-1H-benzo[d]imidazole-6-carboxylic acid]
2.57 nM	NC(=O)c1cc(F)c(COc2cccc(-c3cc(F)c(Cc4nc5ccc(C(=O)O)cc5n4C[C@@H]4CCO4)cc3F)n2)cc1F [Example 172, (S)-2-(4-(6-((4-carbamoyl-2,5-difluorobenzyl)oxy)pyridin-2-yl)-2,5-difluorobenzyl)-1-(oxetan-2-ylmethyl)-1H-benzo[d]imidazole-6-carboxylic acid]
0.144 nM	COc1nnc(COc2cccc(-c3cc(F)c(Cc4nc5ccc(C(=O)O)cc5n4[C@@H]4COCC4(C)C)c(F)c3F)n2)s1 [Example 273, (S)-1-(4,4-dimethyltetrahydrofuran-3-yl)-2-(2,3,6-trifluoro-4-(6-((5-methoxy-1,3,4-thiadiazol-2-yl)methoxy)pyridin-2-yl)benzyl)-1H-benzo[d]imidazole-6-carboxylic acid]
0.186 nM	CNC(=O)c1cc(Cl)c(COc2cc(-c3cc(F)c(Cc4nc5c(F)cc(C(=O)O)cc5n4C[C@@H]4CCO4)cc3F)ccc2F)cn1 [Example 388, (S)-2-((3′-((4-chloro-6-(methylcarbamoyl)pyridin-3-yl)methoxy)-2,4′,5-trifluoro-[1,1′-biphenyl]-4-yl)methyl)-4-fluoro-1-(oxetan-2-ylmethyl)-1H-benzo[d]imidazole-6-carboxylic acid]
0.197 nM	Cn1cncc1C#Cc1ccc(COc2cccc(-c3cc(F)c(Cc4nc5c(F)cc(C(=O)O)cc5n4C[C@@H]4CCO4)cc3F)n2)c(F)c1 [Example 395, (S)-2-(2,5-difluoro-4-(6-((2-fluoro-4-((1-methyl-1H-imidazol-5-yl)ethynyl)benzyl)oxy)pyridin-2-yl)benzyl)-4-fluoro-1-(oxetan-2-ylmethyl)-1H-benzo[d]imidazole-6-carboxylic acid]
5.37 nM	COc1cc(COc2cccc(-c3cc(F)c(Cc4nc5ccc(C(=O)O)cc5n4C[C@@H]4CCO4)cc3F)n2)nn1C [Example 68, (S)-2-(2,5-difluoro-4-(6-((5-methoxy-1-methyl-1H-pyrazol-3-yl)methoxy)pyridin-2-yl)benzyl)-1-(oxetan-2-ylmethyl)-1H-benzo[d]imidazole-6-carboxylic acid]
0.342 nM	CC(C)(C#N)C#Cc1cnc(COc2cccc(-c3cc(F)c(Cc4nc5ccc(C(=O)O)cc5n4C[C@@H]4CCO4)cc3F)n2)s1 [Example 328, (S)-2-(4-(6-((5-(3-cyano-3-methylbut-1-yn-1-yl)thiazol-2-yl)methoxy)pyridin-2-yl)-2,5-difluorobenzyl)-1-(oxetan-2-ylmethyl)-1H-benzo[d]imidazole-6-carboxylic acid]
0.12 nM	Cn1cc(-c2nnc(COc3cccc(-c4cc(F)c(Cc5nc6ccc(C(=O)O)cc6n5C[C@@H]5CCO5)cc4F)n3)s2)cn1 [Example 91, (S)-2-(2,5-difluoro-4-(6-((5-(1-methyl-1H-pyrazol-4-yl)-1,3,4-thiadiazol-2-yl)methoxy)pyridin-2-yl)benzyl)-1-(oxetan-2-ylmethyl)-1H-benzo[d]imidazole-6-carboxylic acid]
1.43 nM	N#Cc1csc(COc2cccc(-c3cc(F)c(Cc4nc5ccc(C(=O)O)cc5n4C[C@@H]4CCO4)cc3F)n2)n1 [Example 23, (S)-2-(4-(6-((4-cyanothiazol-2-yl)methoxy)pyridin-2-yl)-2,5-difluorobenzyl)-1-(oxetan-2-ylmethyl)-1H-benzo[d]imidazole-6-carboxylic acid]
0.89 nM	COCCn1c(Cc2cc(F)c(-c3cccc(OCc4ccc(C#CC5CN(C(C)=O)C5)cc4F)n3)cc2F)nc2ccc(C(=O)O)cc21 [Example 251, 2-[[4-[6-[[4-[2-(1-acetylazetidin-3-yl)ethynyl]-2-fluoro-phenyl]methoxy]-2-pyridyl]-2,5-difluoro-phenyl]methyl]-3-(2-methoxyethyl)benzimidazole-5-carboxylic acid]
0.28 nM	O=C(O)c1ccc2nc(Cc3cc(F)c(-c4cccc(OCc5ccc(C#Cc6cncnc6)cc5F)n4)cc3F)n(C[C@@H]3CCO3)c2c1 [Example 138, (S)-2-(2,5-difluoro-4-(6-((2-fluoro-4-(pyrimidin-5-ylethynyl)benzyl)oxy)pyridin-2-yl)benzyl)-1-(oxetan-2-ylmethyl)-1H-benzo[d]imidazole-6-carboxylic acid]
0.17 nM	Cn1cc(NC(=O)c2cc(Cl)c(COc3cccc(-c4cc(F)c(Cc5nc6ccc(C(=O)O)cc6n5C[C@@H]5CCO5)cc4F)n3)cn2)cn1 [Example 194, (S)-2-(4-(6-((4-chloro-6-((1-methyl-1H-pyrazol-4-yl)carbamoyl)pyridin-3-yl)methoxy)pyridin-2-yl)-2,5-difluorobenzyl)-1-(oxetan-2-ylmethyl)-1H-benzo[d]imidazole-6-carboxylic acid]
0.466 nM	COCc1nnc(COc2cccc(-c3cc(F)c(Cc4nc5ccc(C(=O)O)cc5n4C[C@@H]4CCO4)cc3F)n2)s1 [Example 298, (S)-2-(2,5-difluoro-4-(6-((5-(methoxymethyl)-1,3,4-thiadiazol-2-yl)methoxy)pyridin-2-yl)benzyl)-1-(oxetan-2-ylmethyl)-1H-benzo[d]imidazole-6-carboxylic acid]
0.96 nM	O=C(O)c1ccc2nc(Cc3cc(F)c(-c4cccc(OCc5nnc(C(F)F)s5)n4)cc3F)n(C[C@@H]3CCO3)c2c1 [Example 15, (S)-2-(4-(6-((5-(difluoromethyl)-1,3,4-thiadiazol-2-yl)methoxy)pyridin-2-yl)-2,5-difluorobenzyl)-1-(oxetan-2-ylmethyl)-1H-benzo[d]imidazole-6-carboxylic acid]
0.762 nM	COc1nnc(COc2nc(-c3cc(F)c(Cc4nc5ccc(C(=O)O)cc5n4CC4(CF)CC4)cc3F)ccc2F)s1 [Example 268, 2-(2,5-difluoro-4-(5-fluoro-6-((5-methoxy-1,3,4-thiadiazol-2-yl)methoxy)pyridin-2-yl)benzyl)-1-((1-(fluoromethyl)cyclopropyl)methyl)-1H-benzo[d]imidazole-6-carboxylic acid]
23.2 nM	O=C(O)c1ccc2nc(Cc3cc(F)c(-c4cccc(OCc5nccn5C(F)F)n4)cc3F)n(C[C@@H]3CCO3)c2c1 [Example 19, (S)-2-(4-(6-((1-(difluoromethyl)-1H-imidazol-2-yl)methoxy)pyridin-2-yl)-2,5-difluorobenzyl)-1-(oxetan-2-ylmethyl)-1H-benzo[d]imidazole-6-carboxylic acid]
0.397 nM	COc1nnc(COc2cccc(-c3cc(F)c(Cc4nc5c(F)cc(C(=O)O)cc5n4[C@@H]4COCC4(C)C)c(F)c3)n2)s1 [Example 439, (S)-2-(2,6-difluoro-4-(6-((5-methoxy-1,3,4-thiadiazol-2-yl)methoxy)pyridin-2-yl)benzyl)-1-(4,4-dimethyltetrahydrofuran-3-yl)-4-fluoro-1H-benzo[d]imidazole-6-carboxylic acid]
1.13 nM	NC(=O)c1ccc(COc2cccc(-c3cc(F)c(Cc4nc5ccc(C(=O)O)cc5n4C[C@@H]4CCO4)cc3F)n2)c(F)n1 [Example 240, 2-[[4-[6-[(6-carbamoyl-2-fluoro-3-pyridyl)methoxy]-2-pyridyl]-2,5-difluoro-phenyl]methyl]-3-[[(2S)-oxetan-2-yl]methyl]benzimidazole-5-carboxylic acid]
1.1 nM	NC(=O)c1ccc(COc2nccc(-c3cc(F)c(Cc4nc5ccc(C(=O)O)cc5n4C[C@@H]4CCO4)cc3F)n2)c(F)c1 [Example 203, (S)-2-(4-(2-((4-carbamoyl-2-fluorobenzyl)oxy)pyrimidin-4-yl)-2,5-difluorobenzyl)-1-(oxetan-2-ylmethyl)-1H-benzo[d]imidazole-6-carboxylic acid]
1.75 nM	O=C(O)c1ccc2nc(Cc3cc(F)c(-c4cccc(OCc5cn6ccncc6n5)n4)cc3F)n(C[C@@H]3CCO3)c2c1 [Example 33, (S)-2-(2,5-difluoro-4-(6-(imidazo[1,2-a]pyrazin-2-ylmethoxy)pyridin-2-yl)benzyl)-1-(oxetan-2-ylmethyl)-1H-benzo[d]imidazole-6-carboxylic acid]
0.443 nM	CCOc1nnc(COc2nc(-c3cc(F)c(Cc4nc5ccc(C(=O)O)cc5n4CC4(CF)CC4)cc3F)ccc2F)s1 [Example 256, 2-(4-(6-((5-ethoxy-1,3,4-thiadiazol-2-yl)methoxy)-5-fluoropyridin-2-yl)-2,5-difluorobenzyl)-1-((1-(fluoromethyl)cyclopropyl)methyl)-1H-benzo[d]imidazole-6-carboxylic acid]
0.34 nM	Cn1nccc1C#Cc1ccc(COc2cccc(-c3cc(F)c(Cc4nc5ccc(C(=O)O)cc5n4C[C@@H]4CCO4)cc3F)n2)c(F)c1 [Example 135, (S)-2-(2,5-difluoro-4-(6-((2-fluoro-4-((1-methyl-1H-pyrazol-5-yl)ethynyl)benzyl)oxy)pyridin-2-yl)benzyl)-1-(oxetan-2-ylmethyl)-1H-benzo[d]imidazole-6-carboxylic acid]
0.83 nM	Cn1cc(C#Cc2cnc(COc3cccc(-c4cc(F)c(Cc5nc6ccc(C(=O)O)cc6n5C[C@@H]5CCO5)cc4F)n3)cn2)cn1 [Example 155, (S)-2-(2,5-difluoro-4-(6-((5-((1-methyl-1H-pyrazol-4-yl)ethynyl)pyrazin-2-yl)methoxy)pyridin-2-yl)benzyl)-1-(oxetan-2-ylmethyl)-1H-benzo[d]imidazole-6-carboxylic acid]

Structure (SMILES)	EC50
O=C(O)c1ccc2nc(Cc3cc(F)c(-c4cccc(OCc5nnc(OC6CC(C(F)F)C6)s5)n4)cc3F)n(C[C@@H]3CCO3)c2c1 (stereo partly drawn) [Example 347, (S)-2-(4-(6-((5-(3-(difluoromethyl)cyclobutoxy)-1,3,4-thiadiazol-2-yl)methoxy)pyridin-2-yl)-2,5-difluorobenzyl)-1-(oxetan-2-ylmethyl)-1H-benzo[d]imidazole-6-carboxylic acid]	0.271 nM
